Consider 14 compounds from US20250136553A1, “ACYLSULFONAMIDE KAT6A INHIBITORS” (Olema Pharmaceuticals, Inc., priority 2023, published 2025).

What is called IC50 is the concentration at which inhibition is half-maximal.

The structures appear in SMILES notation.

Chain of human-KAT6A (MYST domain 507-778 aa) (Q92794 507-778): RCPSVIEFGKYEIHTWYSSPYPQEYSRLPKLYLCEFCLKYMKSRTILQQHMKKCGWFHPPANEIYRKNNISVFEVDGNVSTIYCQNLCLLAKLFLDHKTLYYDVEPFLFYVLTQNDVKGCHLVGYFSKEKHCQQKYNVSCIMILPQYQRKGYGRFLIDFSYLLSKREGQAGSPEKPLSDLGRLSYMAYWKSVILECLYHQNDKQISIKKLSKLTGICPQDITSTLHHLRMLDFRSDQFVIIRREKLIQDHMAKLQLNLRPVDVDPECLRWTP

The experiment addresses human-KAT6A (MYST domain 507-778 aa) (Homo sapiens (Human), UniProt Q92794). Put plainly: KAT6A biochemical assay (TR-FRET). As to conditions: TR-FRET; histone H4 peptide 200 nM, acetyl-CoA 600 nM; read-out: KAT6A IC50. The source says:
TR-FRET based methods were used for assaying compounds of the present invention for KAT6A enzyme inhibitory activity. TR-FRET is a homogeneous proximity assay where Europium-labelled anti-acetyl lysine antibody binds to the acetylated substrate labelled with biotin, which in turn binds to streptavidin-labelled APC fluorescence acceptor. Europium can transfer energy to APC in the complex and the interaction of two dye-labelled binding partners is detected by the energy transfer between a donor and an acceptor dye and the subsequent light emission by the acceptor dye. KAT6A transfer an acetyl group from acetyl CoA to lysine amino acids of histones/target proteins. […] The selected compound of the present invention and enzyme are incubated for 30 min on plate shaker at 300 rpm at 25° C. Next, 5 μL of substrate mix containing histone H4 peptide and acetyl-CoA in assay buffer is added to the plate. The final concentrations of H4 peptide and acetyl-CoA are 200 nM and 600 nM, respectively. Following 60 min reaction at 25° C. on plate shaker at 300 rpm, 5 μL of detection mix containing Europium-labelled anti-acetyl antibody and streptavidin-APC is added to the reaction wells. The plate is further incubated at 25° C. on shaker at 300 rpm and is read in TR-FRET mode (Ex:340 nm; Em: 615 nm and 665 nm) on a plate reader to achieve ˜5-7-fold activity. The percent inhibition was calculated from the ratio of the fluorescence (FL) intensities [(F665/F615)×10000) using the formula […]. IC50 values of the compounds were determined by fitting the dose-response data to sigmoidal curve fitting equation using Graph pad prism software V9.
In general terms: Time-resolved FRET reads energy transfer from a long-lived donor to a nearby acceptor.
With `COc1cc(C(=O)NS(=O)(=O)c2c(OC)cccc2OCC(F)(F)F)ccc1Cn1cccn1` [Compound 68, 4-((1H-pyrazol-1-yl)methyl)-3-methoxy-N-((2-methoxy-6-(2,2,2-trifluoroethoxy)phenyl)sulfonyl)benzamide], the IC50 was 23 nM.

Consider `COc1cccc(OC)c1S(=O)(=O)NC(=O)c1ccc(Cn2cccn2)c(OC)c1F` [Compound 69, 4-((1H-pyrazol-1-yl)methyl)-N-((2,6-dimethoxyphenyl)sulfonyl)-2-fluoro-3-methoxybenzamide], for which the half-maximal inhibitory concentration (IC50) worked out at 114 nM.

Take `COc1cc(C(=O)NS(=N)(=O)c2c(OC)cccc2OC)ccc1Cn1cccn1` (centres unmarked) [Compound 71, 4-((1H-pyrazol-1-yl)methyl)-N-(2,6-dimethoxyphenylsulfonimidoyl)-3-methoxybenzamide]: the IC50 is 34 nM.

For the compound `COc1ccc(C(C)(C)C)cc1S(=O)(=O)NC(=O)c1ccc(Cn2cccn2)cn1` [Compound 201, 5-((1H-pyrazol-1-yl)methyl)-N-((5-(tert-butyl)-2-methoxyphenyl)sulfonyl)picolinamide], the IC50 is 731 nM.

As for `COc1cc(C(=O)NS(=O)(=O)c2c(OC)cccc2OC)cnc1Cn1cccn1` [Compound 202, 6-((1H-pyrazol-1-yl)methyl)-N-((2,6-dimethoxyphenyl)sulfonyl)-5-methoxynicotinamide], the IC50 was 104 nM.

Regarding `CCc1ccc(OC)c(S(=O)(=O)NC(=O)c2ccc(Cn3cccn3)c(OC)n2)c1` [Compound 204, 5-((1H-pyrazol-1-yl)methyl)-N-((5-ethyl-2-methoxyphenyl)sulfonyl)-6-methoxypicolinamide], the IC50 worked out at 6 nM.

In the case of `COc1ccc(C(C)(C)C)cc1S(=O)(=O)NC(=O)c1ccc(Cn2cccn2)c(OC)n1` [Compound 205, 5-((1H-pyrazol-1-yl)methyl)-N-((5-(tert-butyl)-2-methoxyphenyl)sulfonyl)-6-methoxypicolinamide], the IC50 stood at 8 nM.

For the compound `COc1ccc(C2CC2)cc1S(=O)(=O)NC(=O)c1ccc(Cn2cccn2)c(OC)n1` [Compound 206, 5-((1H-pyrazol-1-yl)methyl)-N-((5-cyclopropyl-2-methoxyphenyl)sulfonyl)-6-methoxypicolinamide], the IC50 was 8 nM.

As for `COc1ccc(C(F)(F)F)cc1S(=O)(=O)NC(=O)c1ccc(Cn2cccn2)c(OC)n1` [Compound 207, 5-((1H-pyrazol-1-yl)methyl)-6-methoxy-N-((2-methoxy-5-(trifluoromethyl)phenyl)sulfonyl)picolinamide], the IC50 was found to be 10 nM.

For `COc1ccccc1S(=O)(=O)NC(=O)c1ccc(Cn2cccn2)c(OC)n1` [Compound 208, 5-((1H-pyrazol-1-yl)methyl)-6-methoxy-N-((2-methoxyphenyl)sulfonyl)picolinamide], the IC50 came to 22 nM.

For `COc1cccc(OC)c1S(=O)(=O)NC(=O)c1ccc(Cn2cccn2)c(C)n1` [Compound 209, 5-((1H-pyrazol-1-yl)methyl)-N-((2,6-dimethoxyphenyl)sulfonyl)-6-methylpicolinamide], the IC50 was 71 nM.

For `CCc1ccc(OC)c(S(=O)(=O)NC(=O)c2cc(OC)c(Cn3cccn3)cn2)c1` [Compound 210, 5-((1H-pyrazol-1-yl)methyl)-N-((5-ethyl-2-methoxyphenyl)sulfonyl)-4-methoxypicolinamide], the 50% inhibitory concentration (IC50) came to 64 nM.

Turning to `COc1ccc2c(c1S(=O)(=O)NC(=O)c1ccc(Cn3cccn3)c(OC)n1)OCC2` [Compound 211, 5-((1H-pyrazol-1-yl)methyl)-6-methoxy-N-((6-methoxy-2,3-dihydrobenzofuran-7-yl)sulfonyl)picolinamide], the 50% inhibitory concentration (IC50) stood at 8 nM.

Turning to `COc1cc(C(=O)NS(=O)(=O)c2c(OC)cccc2OC)ncc1Cn1cccn1` [Compound 212, 5-((1H-pyrazol-1-yl)methyl)-N-((2,6-dimethoxyphenyl)sulfonyl)-4-methoxypicolinamide], the half-maximal inhibitory concentration (IC50) is 140 nM.
